Where “and” joins values, the source holds several entries; their conditions need not be identical. Identical values can stand only once.
Experiments:
[1] = test system: drill holes in bone (femur) of male rats; assay: Healing of drill-hole defects in the femur of rats; type: in vivo, rat; conditions: for bone healing activity: general statement
Procedure: In one representative study, male rats weighing approximately 350-400 grams received drill holes in bone which were then treated with pharmaceutical preparations containing GHL-Cu.
More specifically, on the day of surgery (Day 0), animals were sedated with pentobarbital (I.P., 35 mg/kg). The hair was clipped from the left rear upper limb, and the area was prepped in a sterile fashion. Using a #15 blade, a 2 cm incision was made on the lateral surface of the upper limb following the approximate location of the femur, extending from just below the crest of the ilium. The tensor fasciae latae muscle was exposed and incised parallel to the muscle filers (1 cm incision). Careful retraction of the muscle provided exposure of the vastus lateralis muscle overlying the femur. The approach to the femur was completed upon incision and retraction of this muscle. This provided exposure of 1 cm of the lateral and ventral surfaces of bone. Using a periosteal elevator, the surface of the femur was cleaned of periosteum. At this point, very little bleeding had been encountered. Using a Dremel drill fitted with a 1 mm diameter cutting burr, a hole was drilled in the femur to a depth of approximately 0.75 mm. Little bleeding was evident except in the rare case of marrow penetration. The area was irrigated and hemostasis achieved. At this point, a pharmaceutical preparation of the compositions of the present invention was applied to the exposed bone surface. The muscle was closed in layers using chromic suture, and the skin was closed with stainless steel wound clips. Structure and function of the muscles was intact following surgery, and very little, if any, morbidity was associated with the surgical procedure.
After 7 to 14 days, the animals were terminated and their femurs removed. Evidence of bone growth was determined from gross visualization of the defect using a Wild dissecting scope, and from subsequent histological preparations (decalcification, paraffin embedding, and Trichrome staining).
Results at 12 to 14 days following surgery utilizing pharmaceutical preparation B to accelerate the bone healing process are summarized in Table 2. Controls consisted of bones without treatment.
In a second study, defects were created in bones and pharmaceutical preparation E applied to the exposed bone in the same manner as described in Example 9.

[2] = test system: bone models implanted in rats; assay: Granulation tissue formation in stainless steel chambers (bone healing model) implanted subcutaneously in rats; type: in vivo, rat; conditions: for PROTEIN: relative to BSA
Excerpt: The subcutaneous implantation of stainless steel chambers in rats provides a reproducible models to monitor the healing of bone. This model in many ways mimics the early events in the formation of granulation tissue found in fractures or other types of injury to bone. Implantation of these chambers triggers a series of responses which reflect the series of phases involved in bone healing--fibrin clot formation, infiltration of white cells, collagen synthesis, and new blood vessel formation.
The assay involves the implantation of two stainless steel chambers (1×2.5 cm cylindrical 312 SS, 20 mesh, with Teflon end caps) on each side of the dorsal midline of rats. After one week to allow for encapsulation of the chambers, one chamber on each rat was injected with 0.2 ml of a 10 mg/ml solution of GHL-Cu and the other with the same volume of saline. Injections are made on days […], 7, 8, 12, 13, 15 and 19. The chambers were removed on day 15 and day 29.
The chambers were lyophilized and the interior contents removed for biochemical analysis. The biochemical parameters examined include the total dry weight, protein content, angiogenesis (alkaline phosphatase activity), and collagen content (hydroxyproline content after acid hydrolysis). Significant increases were found in all the biochemical parameters tested when compounds of the present invention were used as compared to controls.
Protein content was determined by the method of Lowry (Lowry et al., J. Biol. Chem. 193:265-275, 1951) using Bovine Serum Albumin (BSA) as a standard. Angiogenesis was determined by measuring the amount of alkaline phosphatase activity using p-nitrophenyl phosphate as a substrate (Lyles et al., C. Biochem. Pharm. 33:2569-2574, 1984). The collagen content was determined by acid hydrolysis and a colorimetric assay for hydroxyproline (Bergman et al., R. Clin. Chim. Acta 27:347-349, 1970), an amino acid specific for collagen.
The total protein is expressed as mg protein (relative to BSA) per chamber, the angiogenesis as alkaline phosphatase (AP) units per chamber, where one unit=the amount of homogenate which causes an increase in absorbance at 405 nm of 1.0 per min., and the hydroxyproline (HP, Collagen Content) as μg HP per chamber. Comparison with control data is made by determining the ratio, treated/control (T/C) for each parameter.

Substance | bone healing activity [1] | histology, periosteal layer (FIG. 6) ([1]; X40, Trichrome stain, versus placebo) | histology, new bone (FIG. 7) ([1]; X 63, Trichrome stain, versus placebo) | gross appearance of bone defect (FIG. 5) ([1]; day 7, versus placebo gel) | ANGIOGENESIS (alkaline phosphatase) ([2]; day 15) [AP units/chamber] | COLLAGEN (hydroxyproline) ([2]; day 15) [μg HP/chamber] | DRY WEIGHT ([2]; day 15, chamber injected with 0.2 ml of 10 mg/ml solution) [mg] | T/C dry weight ([2]; day 15, ratio treated/control) | T/C protein ([2]; day 15, ratio treated/control) | PROTEIN ([2]; day 15) [mg/chamber] | ANGIOGENESIS (alkaline phosphatase) ([2]; day 29) [AP units/chamber] | COLLAGEN (hydroxyproline) ([2]; day 29) [μg HP/chamber] | DRY WEIGHT ([2]; day 29) [mg] | T/C angiogenesis ([2]; day 29, ratio treated/control) | T/C collagen ([2]; day 29, ratio treated/control) | T/C dry weight ([2]; day 29, ratio treated/control) | T/C protein ([2]; day 29, ratio treated/control) | PROTEIN ([2]; day 29) [mg/chamber]
L-lysyl-L-histidyl-glycine:copper(II) [LHG-Cu] | have shown bone healing activity | – | – | – | – | – | – | – | – | – | – | – | – | – | – | – | – | –
glycyl-L-histidyl-L-lysine:copper(II) [GHL-Cu] | have shown bone healing activity | better developed and continuous | increase in density of new bone | influx of bony calcification and granulation tissue | 6.5 ± 3.2 | 243 ± 215 | 92 ± 46 | ~ 2 and 2.2 | ~ 2 and 2.0 | 69 ± 32 | 20.3 ± 10.0 | 1849 ± 546 | 165 ± 38 | 3.2 | 1.9 | 1.7 | 1.4 | 77 ± 19
